# From PubChem BioAssay (NCI)
#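 Five compound concentrations were applied to cells in 96-well plates for 48 hours; endpoints were derived by simple linear interpolation of the resulting dose-response curve. TGI denotes the concentration required for complete inhibition of growth.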
# Experiments:
# Experiment in all cases: NCI tumour cell line growth inhibition, 48 h
# [1] = test system: 786-0 renal
# [2] = test system: A498 renal
# [3] = test system: A549 NSCLC
# [4] = test system: ACHN renal
# [5] = test system: BT-549 breast
# [6] = test system: CAKI-1 renal
# [7] = test system: CCRF-CEM leukemia
# [8] = test system: COLO 205 colon
# [9] = test system: DU-145 prostate
# [10] = test system: EKVX NSCLC
# [11] = test system: HCC-2998 colon
# [12] = test system: HCT-116 colon
# [13] = test system: HCT-15 colon
# [14] = test system: HL-60(TB) leukemia
# [15] = test system: HOP-62 NSCLC
# [16] = test system: HOP-92 NSCLC
# [17] = test system: HS 578T breast
# [18] = test system: HT29 colon
# [19] = test system: IGROV1 ovarian
# [20] = test system: KM12 colon
# [21] = test system: LOX IMVI melanoma
# [22] = test system: M14 melanoma
# [23] = test system: MALME-3M melanoma
# [24] = test system: MCF7 breast
# [25] = test system: MDA-MB-231 breast
# [26] = test system: MDA-MB-435
# [27] = test system: MDA-N
# [28] = test system: MOLT-4 leukemia
# [29] = test system: NCI-H226 lung
# [30] = test system: NCI-H23 lung
# [31] = test system: NCI-H460 lung
# [32] = test system: NCI-H522 lung
# [33] = test system: NCI/ADR-RES ovarian
# [34] = test system: OVCAR-3 ovarian
# [35] = test system: OVCAR-4 ovarian
# [36] = test system: OVCAR-5 ovarian
# [37] = test system: OVCAR-8 ovarian
# [38] = test system: PC-3 prostate
# [39] = test system: RPMI-8226 leukemia
# [40] = test system: RXF 393 renal
# [41] = test system: SF-268 CNS
# [42] = test system: SF-295 CNS
# [43] = test system: SF-539 CNS
# [44] = test system: SK-MEL-2 melanoma
# [45] = test system: SK-MEL-28 melanoma
# [46] = test system: SK-MEL-5 melanoma
# [47] = test system: SK-OV-3 ovarian
# [48] = test system: SN12C renal
# [49] = test system: SNB-19 CNS
# [50] = test system: SR leukemia
# [51] = test system: SW-620 colon
# [52] = test system: T-47D breast
# [53] = test system: TK-10 renal
# [54] = test system: U251 CNS
# [55] = test system: UACC-257 melanoma
# [56] = test system: UACC-62 melanoma
# [57] = test system: UO-31 renal
# [58] = test system: K-562 leukemia
# [59] = test system: SNB-75 CNS
smiles,measurement,setting,value
CC[C@@]12CCCN3CC[C@]4(c5cccc(OC)c5N(C(C)=O)[C@@H]4CC1)[C@H]32,TGI,[1],> 100 µM
same,TGI,[2],> 100 µM
same,TGI,[3],> 100 µM
same,TGI,[4],> 100 µM
same,TGI,[5],> 100 µM
same,TGI,[6],> 100 µM
same,TGI,[7],57.1 µM
same,TGI,[8],> 100 µM
same,TGI,[9],> 100 µM
same,TGI,[10],> 100 µM
same,TGI,[11],51.1 µM
same,TGI,[12],> 100 µM
same,TGI,[13],> 100 µM
same,TGI,[14],44.6 µM
same,TGI,[15],> 100 µM
same,TGI,[16],> 100 µM
same,TGI,[17],> 100 µM
same,TGI,[18],44 µM
same,TGI,[19],> 100 µM
same,TGI,[20],> 100 µM
same,TGI,[21],> 100 µM
same,TGI,[22],> 100 µM
same,TGI,[23],> 100 µM
same,TGI,[24],> 100 µM
same,TGI,[25],> 100 µM
same,TGI,[26],> 100 µM
same,TGI,[27],> 100 µM
same,TGI,[28],61.3 µM
same,TGI,[29],> 100 µM
same,TGI,[30],> 100 µM
same,TGI,[31],> 100 µM
same,TGI,[32],> 100 µM
same,TGI,[33],> 100 µM
same,TGI,[34],> 100 µM
same,TGI,[35],> 100 µM
same,TGI,[36],> 100 µM
same,TGI,[37],> 100 µM
same,TGI,[38],> 100 µM
same,TGI,[39],> 100 µM
same,TGI,[40],> 100 µM
same,TGI,[41],> 100 µM
same,TGI,[42],> 100 µM
same,TGI,[43],> 100 µM
same,TGI,[44],> 100 µM
same,TGI,[45],> 100 µM
same,TGI,[46],> 100 µM
same,TGI,[47],> 100 µM
same,TGI,[48],> 100 µM
same,TGI,[49],> 100 µM
same,TGI,[50],55.9 µM
same,TGI,[51],> 100 µM
same,TGI,[52],> 100 µM
same,TGI,[53],> 100 µM
same,TGI,[54],> 100 µM
same,TGI,[55],> 100 µM
same,TGI,[56],> 100 µM
same,TGI,[57],> 100 µM
CN1CCc2cc3c(c4c2C1C(O)c1ccccc1-4)OCO3 (stereo not given),TGI,[1],62.2 µM
same,TGI,[2],8.45 µM
same,TGI,[3],52.1 µM
same,TGI,[4],> 100 µM
same,TGI,[5],19.4 µM
same,TGI,[6],18.2 µM
same,TGI,[7],9.69 µM
same,TGI,[8],> 100 µM
same,TGI,[9],> 100 µM
same,TGI,[10],35.4 µM
same,TGI,[11],22.2 µM
same,TGI,[12],> 100 µM
same,TGI,[13],20.3 µM
same,TGI,[14],5.06 µM
same,TGI,[15],18.6 µM
same,TGI,[16],7.22 µM
same,TGI,[17],19.5 µM
same,TGI,[18],18.3 µM
same,TGI,[19],26 µM
same,TGI,[58],63.5 µM
same,TGI,[20],24 µM
same,TGI,[21],25.1 µM
same,TGI,[22],19.5 µM
same,TGI,[23],23.2 µM
same,TGI,[24],19.3 µM
same,TGI,[25],22.5 µM
same,TGI,[26],28 µM
same,TGI,[27],16.1 µM
same,TGI,[28],37.6 µM
same,TGI,[30],48.2 µM
same,TGI,[31],11.9 µM
same,TGI,[32],13.7 µM
same,TGI,[33],53.9 µM
same,TGI,[34],44.1 µM
same,TGI,[35],29.5 µM
same,TGI,[36],44.4 µM
same,TGI,[37],50.5 µM
same,TGI,[38],18.6 µM
same,TGI,[39],32.6 µM
same,TGI,[40],10.8 µM
same,TGI,[41],27.7 µM
same,TGI,[42],21.1 µM
same,TGI,[43],> 100 µM
same,TGI,[44],21.7 µM
same,TGI,[45],85.7 µM
same,TGI,[46],26.4 µM
same,TGI,[47],> 100 µM
same,TGI,[48],11.1 µM
same,TGI,[49],> 100 µM
same,TGI,[59],28.5 µM
same,TGI,[50],28.8 µM
same,TGI,[51],> 100 µM
same,TGI,[52],> 100 µM
same,TGI,[53],> 100 µM
same,TGI,[54],25.6 µM
same,TGI,[55],26.3 µM
same,TGI,[56],25.9 µM
same,TGI,[57],34 µM
